# Target: T1, HoxEFU (Synechocystis sp. PCC 6803, UniProt P74024)
# T1 construct: gene hoxF; heterotrimeric diaphorase subcomplex without HoxYH; Strep-II tag with Ser-Ala linker at C-terminus of HoxF; codon-optimised, pET21, E. coli BL21 deltaiscR; anaerobic purification; with Bidirectional [NiFe] hydrogenase diaphorase subunit HoxE; Bidirectional [NiFe] hydrogenase diaphorase subunit HoxU
# T1 sequence (P74024 1-533): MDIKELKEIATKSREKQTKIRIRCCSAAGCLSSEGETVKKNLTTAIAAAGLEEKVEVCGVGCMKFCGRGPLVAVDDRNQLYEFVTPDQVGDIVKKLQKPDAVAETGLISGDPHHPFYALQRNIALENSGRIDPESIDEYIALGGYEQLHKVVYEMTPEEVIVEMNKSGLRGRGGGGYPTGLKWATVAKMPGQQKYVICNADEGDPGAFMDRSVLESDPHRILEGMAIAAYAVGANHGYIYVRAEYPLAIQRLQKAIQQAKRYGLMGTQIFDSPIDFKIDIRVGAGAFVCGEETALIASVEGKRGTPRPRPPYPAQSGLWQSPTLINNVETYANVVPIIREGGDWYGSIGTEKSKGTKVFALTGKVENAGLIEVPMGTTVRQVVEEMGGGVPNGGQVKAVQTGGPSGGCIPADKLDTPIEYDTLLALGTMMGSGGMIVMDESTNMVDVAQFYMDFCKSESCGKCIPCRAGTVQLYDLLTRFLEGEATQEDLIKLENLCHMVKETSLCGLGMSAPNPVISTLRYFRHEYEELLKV
# T1 sequence (P74025 1-173 partner): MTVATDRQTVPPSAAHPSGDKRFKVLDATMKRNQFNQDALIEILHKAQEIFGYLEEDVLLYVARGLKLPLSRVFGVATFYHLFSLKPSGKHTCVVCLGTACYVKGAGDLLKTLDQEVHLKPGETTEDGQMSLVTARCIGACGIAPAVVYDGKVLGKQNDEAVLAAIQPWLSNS
# T1 sequence (P74022 1-238 partner): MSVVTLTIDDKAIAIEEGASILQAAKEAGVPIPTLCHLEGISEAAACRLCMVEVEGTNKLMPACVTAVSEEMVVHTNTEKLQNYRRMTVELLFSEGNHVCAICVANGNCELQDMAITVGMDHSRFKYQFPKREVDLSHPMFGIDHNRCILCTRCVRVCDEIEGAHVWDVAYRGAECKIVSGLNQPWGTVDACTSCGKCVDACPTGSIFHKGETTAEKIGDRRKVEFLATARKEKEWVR
# Assay: intrinsic protein fluorescence/FRET titration, equilibrium binding isotherm
# Conditions: Hill fit (cooperative); excitation 285 nm, emission 348 nm
row,Kd [µM],SMILES
1,32,NC(=O)C1=CN([C@@H]2O[C@H](COP(=O)(O)OP(=O)(O)OC[C@H]3O[C@@H](n4cnc5c(N)ncnc54)[C@H](O)[C@@H]3O)[C@@H](O)[C@H]2O)C=CC1 [NADH]
2,1950 ± 270,NC(=O)c1ccc[n+]([C@@H]2O[C@H](COP(=O)(O)OP(=O)(O)OC[C@H]3O[C@@H](n4cnc5c(N)ncnc54)[C@H](OP(=O)(O)O)[C@@H]3O)[C@@H](O)[C@H]2O)c1 [NADP^+]
3,1350 ± 70,NC(=O)c1ccc[n+]([C@@H]2O[C@H](COP(=O)(O)OP(=O)(O)OC[C@H]3O[C@@H](n4cnc5c(N)ncnc54)[C@H](O)[C@@H]3O)[C@@H](O)[C@H]2O)c1 [NAD^+]
